Experimental data reported in publication PMC2789381, “Voltage-Dependent Modulation of Cardiac Ryanodine Receptors (RyR2) by Protamine” (PLoS ONE, 2009).
Values joined by “and” are separate entries in the source; they are usually repeats but may differ in a detail not shown here. Equal values may be shown once.

Molecular target: T1, cardiac RyR2 (Sus scrofa, UniProt A0A5G2R1W3)
T1 construct: from tissue; host or cells: pig heart ventricle (sarcoplasmic reticulum microsomes)
Assay: Single-channel recordings of RyR2 reconstituted into planar lipid bilayers
Format: biochemical, pig
Settings: for dwell time of ryanodol-induced events: Vm = +20 mV, n = 7, mean±SEM; for dwell time of ryanodol-induced events / slope conductance of the induced substate (I-V curve): SEM; for substate current level as % of the current through the full open channel / substate current level as % of the full open current: 1 µg/ml protamine, 10 µM ryanodol or 50 nM IpTxA, 10 µM cytosolic Ca2+/5 mM caffeine; for substate current level as % of the full open current: Vm = +40 mV; for slope conductance of the induced substate (I-V curve): fully active RyR2 (10 µM Ca2+/5 mM caffeine), full open state 129±1 pS, n = 10 protamine, 13 ryanodol, 5 IpTxA, mean±SEM
Excerpt: All procedures with animals were designed to minimize pain and suffering and conformed to the guidelines of the National Institutes of Health. The committee on the Use and Care of Laboratory Animals of Southern Illinois University School of Medicine reviewed and approved the protocols for animal use. Sarcoplasmic reticulum (SR) microsomes were obtained from pig heart ventricle using heart homogenization and ultracentrifugation steps that follow the procedures published by Chamberlain et al.. SR pellets obtained after high speed centrifugation were resuspended in 290 mM sucrose - 5 mM Imidazole buffer (pH = 7) and were aliquoted in cryovials (300 µl each) and kept in liquid nitrogen (better and safer long-term storage). Every month, a few cryovials are used to generate smaller aliquots of membranes (15 µl each) which were stored at –80°C for easy access. For experiments, aliquots were quickly thawed in water, kept on ice and used within 3–5 hours.
Reconstitution of RyR2 in planar lipid bilayers, was performed as previously described. Briefly, planar lipid bilayers were formed on 80 to 100 µm-diameter circular holes in teflon septa, separating two 1.3 ml compartments. The trans compartment was filled with HEPES-Ca^2+ solution containing HEPES 250 mM and Ca(OH)2 53 mM, pH 7.4. The trans compartment was clamped at 0 mV using an Axopatch 200B patch-clamp amplifier (Axon Instruments, Foster City, CA). The cis compartment (ground) was filled with HEPES-Tris solution containing HEPES 250 mM and TrisOH 118 mM, pH 7.4. Bilayers of a 5∶4∶1 mixture of bovine brain phosphatidylethanolamine, phosphatidylserine and phosphatidylcholine (45–50 mg/ml in decane) were painted onto the holes of teflon septa from the cis side. Sarcoplasmic reticulum microsomes (5–15 µg) were then added to the cis solution followed by 500–1000 mM CsCl and 1 mM CaCl2 to promote vesicle fusion. After RyR currents (or Cl^− currents >100 pA at 0 mV) were observed, the cis chamber was perfused with HEPES-TRIS solution for 5 min at 4 ml/min. A mixture of BAPTA and dibromo-BAPTA was used to buffer free [Ca^2+] on the cytosolic surface of the channel ([Ca^2+]cyt). As previously done, RyR channels were identified by current amplitudes (∼3.5 pA at 0 mV), slope conductance (∼100 pS), reversal potential (∼−45 mV, trans - cis) and response to diagnostic ligands (e.g., ryanodine, Ca^2+, ATP, caffeine and Ruthenium Red). RyR channel currents are depicted as positive (upward deflections of the current) in figures and reflect cation flux from the trans (lumenal) to the cis (cytosolic) compartment. Membrane voltages always represent the difference between trans - cis compartments (in mV).
Channel currents were first filtered through the Axopatch 200B low-pass Bessel filter at 2 kHz, digitized at 20 kHz with an analog to digital converter (Digidata 1320, Axon Instruments) and stored on DVD. Recordings were analyzed using pClamp9 software (Axon Instruments). Analysis with this program included open times, closed times and open probabilities (Po), which were determined by half-amplitude threshold analysis of single-channel recordings as done before.
Recordings were digitally filtered at 500 Hz in order to estimate the probabilities of substates using two different methods:
Frame by frame analysis (100 ms/frame) was performed using pClamp9 on each 4-min recording. […] The parameters (mean amplitude and duration) of each event were collected and averaged. The probability of substate occurrence, Psubstate, was estimated from the ratio: time spent in substate/total recording time. Pfull open was estimated as the fraction of time spent in the maximal current level (full opening).

T1 sequence (A0A5G2R1W3 20-4900): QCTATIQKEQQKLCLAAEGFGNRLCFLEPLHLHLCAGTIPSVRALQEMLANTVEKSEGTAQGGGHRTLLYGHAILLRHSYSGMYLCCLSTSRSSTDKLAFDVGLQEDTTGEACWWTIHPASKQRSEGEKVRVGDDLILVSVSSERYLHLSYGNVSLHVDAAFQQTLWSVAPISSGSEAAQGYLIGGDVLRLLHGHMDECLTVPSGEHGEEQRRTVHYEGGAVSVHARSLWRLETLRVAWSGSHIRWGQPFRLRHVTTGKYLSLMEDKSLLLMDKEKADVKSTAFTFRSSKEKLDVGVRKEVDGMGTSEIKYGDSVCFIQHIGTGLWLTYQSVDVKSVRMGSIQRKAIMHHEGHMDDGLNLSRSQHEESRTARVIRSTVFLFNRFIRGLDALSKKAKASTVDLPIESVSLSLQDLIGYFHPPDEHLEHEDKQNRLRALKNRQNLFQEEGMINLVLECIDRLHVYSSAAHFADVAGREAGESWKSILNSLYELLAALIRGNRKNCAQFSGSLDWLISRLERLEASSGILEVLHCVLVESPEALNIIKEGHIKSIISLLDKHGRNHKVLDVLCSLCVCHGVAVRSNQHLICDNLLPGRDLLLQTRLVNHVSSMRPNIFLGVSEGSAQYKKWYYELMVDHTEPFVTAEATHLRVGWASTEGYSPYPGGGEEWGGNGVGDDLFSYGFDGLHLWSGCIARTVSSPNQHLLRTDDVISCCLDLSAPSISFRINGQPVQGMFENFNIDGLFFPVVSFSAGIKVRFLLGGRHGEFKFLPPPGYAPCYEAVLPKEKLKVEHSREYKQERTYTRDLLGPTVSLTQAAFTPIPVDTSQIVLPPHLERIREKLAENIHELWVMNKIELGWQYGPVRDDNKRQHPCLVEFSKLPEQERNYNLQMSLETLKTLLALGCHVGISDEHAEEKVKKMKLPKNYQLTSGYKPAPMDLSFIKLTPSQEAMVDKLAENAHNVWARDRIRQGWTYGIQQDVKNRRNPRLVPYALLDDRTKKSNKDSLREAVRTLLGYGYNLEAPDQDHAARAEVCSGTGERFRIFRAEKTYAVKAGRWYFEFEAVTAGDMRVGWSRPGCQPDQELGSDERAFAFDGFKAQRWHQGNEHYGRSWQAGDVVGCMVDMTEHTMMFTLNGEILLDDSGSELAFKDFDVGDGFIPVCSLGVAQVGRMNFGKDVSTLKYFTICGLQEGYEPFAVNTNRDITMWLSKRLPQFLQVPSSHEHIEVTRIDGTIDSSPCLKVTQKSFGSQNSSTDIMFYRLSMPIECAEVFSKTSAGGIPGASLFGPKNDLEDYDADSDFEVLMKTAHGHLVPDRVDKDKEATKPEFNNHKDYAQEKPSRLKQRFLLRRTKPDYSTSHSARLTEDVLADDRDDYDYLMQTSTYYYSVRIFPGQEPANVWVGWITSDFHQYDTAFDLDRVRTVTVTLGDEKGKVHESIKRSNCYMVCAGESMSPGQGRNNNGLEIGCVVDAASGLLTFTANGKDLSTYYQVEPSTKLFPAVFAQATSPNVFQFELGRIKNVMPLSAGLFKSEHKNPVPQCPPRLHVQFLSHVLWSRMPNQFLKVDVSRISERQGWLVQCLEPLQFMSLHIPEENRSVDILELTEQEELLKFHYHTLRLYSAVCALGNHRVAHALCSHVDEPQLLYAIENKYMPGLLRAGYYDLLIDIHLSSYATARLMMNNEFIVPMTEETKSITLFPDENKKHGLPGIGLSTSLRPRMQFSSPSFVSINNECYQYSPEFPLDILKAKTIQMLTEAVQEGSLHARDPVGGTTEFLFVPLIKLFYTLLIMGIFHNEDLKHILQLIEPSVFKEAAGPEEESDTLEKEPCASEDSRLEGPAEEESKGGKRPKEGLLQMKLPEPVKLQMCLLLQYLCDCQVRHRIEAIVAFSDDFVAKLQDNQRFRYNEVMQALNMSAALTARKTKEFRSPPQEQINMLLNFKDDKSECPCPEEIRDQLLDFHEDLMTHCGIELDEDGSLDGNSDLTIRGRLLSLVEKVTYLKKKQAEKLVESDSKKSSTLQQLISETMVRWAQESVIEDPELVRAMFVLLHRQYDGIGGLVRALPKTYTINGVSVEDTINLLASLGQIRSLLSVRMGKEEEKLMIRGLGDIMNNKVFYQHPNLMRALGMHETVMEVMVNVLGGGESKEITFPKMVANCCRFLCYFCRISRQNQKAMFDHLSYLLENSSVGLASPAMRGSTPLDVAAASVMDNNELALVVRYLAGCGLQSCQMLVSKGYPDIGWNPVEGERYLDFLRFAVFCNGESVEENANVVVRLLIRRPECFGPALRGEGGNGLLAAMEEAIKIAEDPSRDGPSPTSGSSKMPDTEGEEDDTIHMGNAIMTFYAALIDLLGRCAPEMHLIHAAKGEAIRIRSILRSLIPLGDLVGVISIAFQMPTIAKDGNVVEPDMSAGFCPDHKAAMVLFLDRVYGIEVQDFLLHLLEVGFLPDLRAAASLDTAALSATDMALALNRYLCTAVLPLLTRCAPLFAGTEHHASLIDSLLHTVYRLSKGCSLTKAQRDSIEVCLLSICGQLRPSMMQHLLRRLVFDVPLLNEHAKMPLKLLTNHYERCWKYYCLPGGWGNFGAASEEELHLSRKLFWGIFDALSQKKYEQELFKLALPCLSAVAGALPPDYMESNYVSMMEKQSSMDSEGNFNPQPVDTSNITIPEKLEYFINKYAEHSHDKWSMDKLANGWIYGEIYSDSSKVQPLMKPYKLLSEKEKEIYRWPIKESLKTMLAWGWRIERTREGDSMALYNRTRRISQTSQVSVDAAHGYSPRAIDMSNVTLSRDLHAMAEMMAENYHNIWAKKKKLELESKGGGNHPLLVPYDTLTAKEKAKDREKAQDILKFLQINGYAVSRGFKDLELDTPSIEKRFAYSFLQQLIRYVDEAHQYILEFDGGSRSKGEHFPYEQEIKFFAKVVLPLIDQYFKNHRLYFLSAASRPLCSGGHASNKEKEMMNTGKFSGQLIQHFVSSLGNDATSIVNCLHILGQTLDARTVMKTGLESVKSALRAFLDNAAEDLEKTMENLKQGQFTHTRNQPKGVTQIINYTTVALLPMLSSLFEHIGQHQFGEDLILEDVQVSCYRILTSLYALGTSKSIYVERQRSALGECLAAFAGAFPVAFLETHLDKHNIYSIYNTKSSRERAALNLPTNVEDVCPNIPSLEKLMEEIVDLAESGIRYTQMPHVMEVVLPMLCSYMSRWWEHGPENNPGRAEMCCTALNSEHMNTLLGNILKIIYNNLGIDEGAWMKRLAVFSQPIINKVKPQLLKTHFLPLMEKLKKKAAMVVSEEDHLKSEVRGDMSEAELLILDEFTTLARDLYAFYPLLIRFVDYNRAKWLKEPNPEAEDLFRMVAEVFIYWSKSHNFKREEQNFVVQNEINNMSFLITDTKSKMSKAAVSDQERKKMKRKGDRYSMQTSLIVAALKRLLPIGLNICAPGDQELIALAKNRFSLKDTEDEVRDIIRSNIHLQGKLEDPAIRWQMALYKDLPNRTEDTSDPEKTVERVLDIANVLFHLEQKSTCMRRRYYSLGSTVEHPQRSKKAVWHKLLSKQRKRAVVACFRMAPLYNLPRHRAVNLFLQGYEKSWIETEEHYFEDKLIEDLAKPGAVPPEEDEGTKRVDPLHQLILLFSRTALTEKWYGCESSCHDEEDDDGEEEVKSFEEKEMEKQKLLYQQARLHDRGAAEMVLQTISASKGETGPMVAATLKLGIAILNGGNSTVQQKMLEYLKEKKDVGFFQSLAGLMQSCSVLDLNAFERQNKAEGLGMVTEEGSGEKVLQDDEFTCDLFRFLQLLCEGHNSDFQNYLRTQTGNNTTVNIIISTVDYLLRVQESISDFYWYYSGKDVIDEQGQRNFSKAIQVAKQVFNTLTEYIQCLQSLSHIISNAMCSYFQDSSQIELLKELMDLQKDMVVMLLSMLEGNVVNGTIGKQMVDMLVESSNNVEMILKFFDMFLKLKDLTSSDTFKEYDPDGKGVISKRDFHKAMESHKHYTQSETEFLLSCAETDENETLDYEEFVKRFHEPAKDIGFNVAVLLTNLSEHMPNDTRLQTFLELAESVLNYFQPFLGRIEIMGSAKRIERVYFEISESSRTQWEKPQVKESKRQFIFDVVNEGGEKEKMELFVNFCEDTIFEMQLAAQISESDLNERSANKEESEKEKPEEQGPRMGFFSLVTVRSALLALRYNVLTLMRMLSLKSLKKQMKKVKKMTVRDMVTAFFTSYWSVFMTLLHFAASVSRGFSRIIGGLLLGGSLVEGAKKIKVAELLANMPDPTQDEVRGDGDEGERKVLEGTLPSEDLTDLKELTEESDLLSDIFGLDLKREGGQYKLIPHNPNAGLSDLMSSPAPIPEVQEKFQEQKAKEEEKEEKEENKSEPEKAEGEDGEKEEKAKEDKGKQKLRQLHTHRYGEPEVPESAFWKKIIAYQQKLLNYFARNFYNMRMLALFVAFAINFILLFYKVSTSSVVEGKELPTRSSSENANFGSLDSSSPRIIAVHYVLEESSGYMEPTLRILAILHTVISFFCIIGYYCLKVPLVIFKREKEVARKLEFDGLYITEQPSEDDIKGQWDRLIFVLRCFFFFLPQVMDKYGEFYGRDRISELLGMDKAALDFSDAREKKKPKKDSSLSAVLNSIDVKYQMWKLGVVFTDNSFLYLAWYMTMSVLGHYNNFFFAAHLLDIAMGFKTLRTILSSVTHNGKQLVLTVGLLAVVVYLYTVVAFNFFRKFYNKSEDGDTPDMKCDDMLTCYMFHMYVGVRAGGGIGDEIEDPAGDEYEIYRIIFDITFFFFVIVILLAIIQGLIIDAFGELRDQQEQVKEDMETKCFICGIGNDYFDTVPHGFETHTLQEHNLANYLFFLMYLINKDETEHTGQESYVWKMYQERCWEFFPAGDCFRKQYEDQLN

| Molecule | dwell time of ryanodol-induced events (10 µM ryanodol + 1 µg/ml protamine + 250 µg/ml heparin) [s] | dwell time of ryanodol-induced events (10 µM ryanodol + 1 µg/ml protamine) | dwell time of ryanodol-induced events (10 µM ryanodol alone) [s] | substate current level as % of the current through the full open channel (Vm = 0 mV) [%] | substate current level as % of the full open current | slope conductance of the induced substate (I-V curve) [pS] | effect of IpTxA on RyR2 behavior when protamine is present (50 nM IpTxA + 1 µg/ml protamine, fully activated RyR2) | open probability (Po) after addition of heparin (250 µg/ml heparin after 1 µg/ml protamine, 100 nM cytosolic Ca2+, Vm = 20 mV, n = 5) | effect of subsequent heparin addition on protamine-modified RyR2 (250 µg/ml heparin after 20 µg/ml protamine, Vm = 0 mV) |
| --- | --- | --- | --- | --- | --- | --- | --- | --- | --- |
| CC(C)[C@@]1(O)[C@@H](O)[C@@]2(O)[C@@]3(C)C[C@]4(O)O[C@@]5([C@H](O)[C@@H](C)CC[C@]35O)[C@@]2(O)[C@]14C [ryanodol, Ryanodol] | 3.4 ± 0.5 | 11 ± 3 s and 11.3 ± 2.5 s | 3.7 ± 0.7 | ~45 | same proportions | 56±2 | – | – | – |
| Imperatoxin A [IpTxA] | – | – | – | ~33 | same proportions | 43±3 | little or no effect | – | – |
| heparin | – | – | – | – | – | – | – | 0.009±0.006 | reversed the effect of protamine |
